# Patent US20170135996A1, “PHARMACEUTICAL DEPOT FOR N-{5-[(CYCLOPROPYLAMINO)CARBONYL]-2-METHYLPHENYL)-3-FLUORO-4-(PYRIDIN-2-YLMETHOXY)BENZAMIDE” (AstraZeneca AB, priority 2008, published 2017)
# Key:
# [1] = test system: rat mono-iodoacetate (MIA) model of joint pain; test: Rat mono-iodoacetate (MIA) model of joint pain, weight bearing asymmetry; type: in vivo; settings: unformulated, 29 μg/ml (69 μM) in 5 μl intra-articular, 3 days post MIA
# Description: All studies were carried out in a rat mono-iodoacetate (MIA) model of joint pain as a screen for analgesia of pain driven by joint inflammation and destruction (see Ivanavicius et al., 2007 Pain 128 p272). The MIA model induces an early synovitis (day 3) followed by progressive loss of articular cartilage, and subchondral bone pathology by day 14.
# N-{5-[(cyclopropylamino)carbonyl]-2-methylphenyl}-3-fluoro-4-(pyridin-2-ylmethoxy)benzamide was formulated into PLGA microspheres (50:50 PLGA as in Example 1) and tested in the MIA model. Rats were injected intra-articularly with MIA on day 0. Three days post MIA (to allow disease to progress) animals were injected intra-articularly with formulated N-{5-[(cyclopropylamino)carbonyl]-2-methylphenyl}-3-fluoro-4-(pyridin-2-ylmethoxy)benzamide in 50:50 PLGA (200 μg/30 μl) or with microsphere formulation ([…]).
# A dose of 29 μg/ml (69 μM) of N-{5-[(cyclopropylamino)carbonyl]-2-methylphenyl}-3-fluoro-4-(pyridin-2-ylmethoxy)benzamide was delivered in a 5 μl injection volume to give a Cmin concentration of 1 μM at 1.5 hours. The dosing was carried out 3 days post MIA at the same time point that formulated N-{5-[(cyclopropylamino)carbonyl]-2-methylphenyl}-3-fluoro-4-(pyridin-2-ylmethoxy)benzamide as the PA were dosed. […]
# [2] = Synovial fluid pharmacokinetics after intra-articular injection of unformulated PA; type: in vivo; settings: rat, 15 ng in 5 μl intra-articular
# Description: Unformulated N-{5-[(cyclopropylamino)carbonyl]-2-methylphenyl}-3-fluoro-4-(pyridin-2-ylmethoxy)benzamide was intra-articularly injected (15 ng in 5 μl injection in PBS) to rats and synovial fluid concentrations were determined at 15, 30 and 60 minutes post dose. The synovial fluid from the rat knee joint was sampled using a knee wash methodology. The knee was exposed and a transverse cut made to the patellar tendon proximal to the tibia. The knee cavity was opened up by dissection, and the knee lavaged between the tibial and femoral condyles with 3×25 μl PBS using an eppendorf pipette.
# [3] = Hydrolytic stability of PA in the acidic microclimate of the degrading polymer; type: physicochemical; settings: acidic microclimate created upon degradation of the polymer
# [4] = Systemic pharmacokinetic parameters in the rat; type: in vivo; design: systemic Vdss: unit not given here
compound,measurement,setting,value
"Cc1ccc(C(=O)NC2CC2)cc1NC(=O)c1ccc(OCc2ccccn2)c(F)c1 [PA, N-{5-[(cyclopropylamino)carbonyl]-2-methylphenyl}-3-fluoro-4-(pyridin-2-ylmethoxy)benzamide]",efficacy in MIA model (% weight distribution),[1],no efficacy
same,Clearance (Cl),[2],61 µL/h
same,Volume of distribution (Vdss),[2],9 µL
same,half-life,[2]; read-out: Half-life (t1/2) (converted),12 min
same,hydrolytic stability,[3],hydrolytically stable
same,systemic Vdss,[4],1.71 kg⁻¹
same,clearance,"[4]; in vivo, read-out: systemic Cl",14 mL/min/kg
